Reference: article PMC10447463, “Data-mining unveils structure–property–activity correlation of viral infectivity enhancing self-assembling peptides” (Nature Communications, 2023)

Legend:
[1] = test system: HIV-1 infection of TZM-bl cells; assay: HIV-1 infectivity enhancement assay, β-galactosidase luminescence; assay type: cell-based
[2] = Turbidity, derived count rate of scattered light; assay type: physicochemical; conditions: for Log Count Rate: log of derived count rate; for Count Rate: turbidity; for Count Rate / kcps: derived count rate of scattered light at 633 nm, 173°, from zeta-potential measurement, 0.1 mg/mL in 1 mM KCl after 1 d at 1 mg/mL in PBS, turbidity / microscopic aggregation, mean of triplicate
In short: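 Samples: 1 mg/mL in PBS pH 7.4 (from DMSO), 1 d at RT, then diluted in 1 mM KCl immediately before measurement. Triplicates, two independent runs averaged.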

[3] = Feb2021; figures match the 1.3 µM column
[4] = Feb2021; infectivity relative to virus only
[5] = Feb2021; log10 of infectivity relative to EF-C
[6] = Feb2021; n-fold infectivity relative to EF-C
[7] = Fig S8 panels B, D; infectivity enhancement relative to EF-C
[8] = Fig S8 panels B, D; infectivity n-fold relative to virus alone
[9] = infectivity class (low / medium / high) of each library peptide; main list in c1-c6, same classes repeated in sub-lists of sequences containing the hydrophobicity/charge patterns P+,H0,P+,H0,P0,H0,P0; P+,H0,P0,H0,P0,H0,P0; P+,H0,P0,H0
[10] = infectivity class (low / medium / high) of the peptide in the sequence-pattern analysis, Fig. S22-A4; class limits not given
[11] = log10 of HIV-1 infection of TZM-bl cells relative to EF-C; Fig S15 source data; asymmetric std dev errors
[12] = Fig S8 panels A, C, asymmetric log errors
[13] = Fig S8 panels B, D, derived count rate of scattered light
[14] = derived count rate of scattered light
[15] = HIV-1 infection relative to EF-C; Fig 23 plot, panels A and B; mean of 3 values
[16] = HIV-1 infection relative to EF-C; Fig 23 plot, single data point, replicate 1
[17] = HIV-1 infection relative to EF-C; Fig 23 plot, single data point, replicate 2
[18] = HIV-1 infection relative to EF-C; Fig 23 plot, single data point, replicate 3
[19] = log10 of infection relative to EF-C, Figure 6C
[20] = n-fold infection vs virus only, relative to that of EF-C, 1.3 µM peptide
[21] = log10 of derived count rate of scattered light, Figure 6C
[22] = logarithm of count rate in kcps
[23] = log10 of infection relative to EF-C, Figure 7B
[24] = Feb2021 run; infectivity n-fold relative to virus alone
[25] = Feb2021 run; log10 of infectivity relative to EF-C
[26] = Feb2021 run; n-fold infectivity relative to EF-C
[27] = derived count rate of scattered light, mean, std deviation in separate column
[28] = infectivity enhancement relative to EF-C (=1); Feb2021 run
[29] = infectivity n-fold relative to virus only; Feb2021 run
[30] = log10 of infectivity relative to EF-C; Feb2021 run
[31] = derived count rate from zeta measurement, mean

Row | Substance | Absolute Infectivity / RLU /s (Feb2021) [1, 3] | n-fold to virus (Feb2021) [1, 4] | Log10 of Rel to EFC (Feb2021) [1, 5] | Rel-to EFC (Feb-2021) [1, 6] | infectivity [1, 9] | Log10 Inf. rel. to EF-C [1, 11] | Zeta Count Rate Category ([2]; category 1 / 0, no key given) | Zeta Count Rate / kcps [2, 14] | Log10 Infection Rel EF-C [1, 19] | Inf. rel. EF-C [1, 20] | Count Rate / kcps [2] | Log10 Count Rate [2, 21] | Log10 Count Rate [2, 22] | other results
1 | HHHHKIKIQINMYYYY [TM16] | 22408.88889 RLU /s | 46.56 | 0.04454 | 1.108 | high | 0.04454 | 1 | 5659 kcps | – | – | – | – | – | Rel-to EFC [1, 7]: 1.108; n-fold to virus [1, 8]: 46.56; infectivity [1, 10]: high; Log Count Rate [2, 12]: 3.753; Log Count Rate ([2]; Fig S8 panels B, D): 3.753; Count Rate [2, 13]: 5658.77
2 | KLKLKLQL [TG16] | 2097 RLU /s | 4.111 | -1.009 | 0.09784 | low | -1.009 | 0 | 42.87 kcps | – | – | – | – | – | infectivity [1, 10]: low
3 | CRLRVGVS | – | – | – | – | – | – | – | – | -1.362 | 0.04 | 35.07 kcps | 1.545 | 1.545 | Inf. rel. EF-C [1, 15]: 0.04346; Inf. rel. EF-C [1, 16]: 0.06547; Inf. rel. EF-C [1, 17]: 0.03045; Inf. rel. EF-C [1, 18]: 0.03448
4 | RFWFWFW | – | – | – | – | – | – | – | – | -0.495 | 0.32 | 30037.33333 kcps | 4.478 | 4.478 | –
5 | RATVYV [reference compound] | – | – | – | – | – | – | – | – | – | 0.04 | 42 kcps | – | – | Log10 Infection Rel EF-C [1, 23]: -1.38
6 | RVHLGLG | – | – | – | – | – | – | – | – | -1.686 | 0.02 | 28.33 kcps | 1.4523 | 1.4523 | Inf. rel. EF-C [1, 15]: 0.0206; Inf. rel. EF-C [1, 16]: 0.01527; Inf. rel. EF-C [1, 17]: 0.01985; Inf. rel. EF-C [1, 18]: 0.02667
7 | KVKVKVQV [JG14 / TG14] | 466.7 RLU /s | 0.7254 | -1.763 | 0.01726 | low | -1.763 | 0 | 94.37 kcps | – | – | – | – | – | –
8 | CKIKIQIII [AR0 / F19] | – | – | – | – | high | -0.01045 | – | – | – | – | – | – | – | n-fold to virus (Feb2021) [1, 24]: 41.02; Log10 of Rel to EFC (Feb2021) [1, 25]: -0.01045; Rel-to EFC (Feb-2021) [1, 26]: 0.9762; infectivity [1, 10]: high; Zeta Count Rate / kcps [2, 27]: 4953 kcps
9 | NKGAII [reference compound] | – | – | – | – | – | – | – | – | – | 0.06 | 68 kcps | – | – | Log10 Infection Rel EF-C [1, 23]: -1.2
10 | KYKYQY [KB1] | 230 RLU /s | 0.4313 | -1.989 | 0.01026 | low | -1.9887 | 0 | 31.53 kcps | – | – | – | – | – | –
11 | RQGNINIVA [reference compound] | – | – | – | – | – | – | – | – | – | 0.12 | 36 kcps | – | – | infectivity enhancement, in words ([1]; fibril-forming peptides with positive zeta-potential, low count rate): do not enhance infectivity; Log10 Infection Rel EF-C [1, 23]: -0.93
12 | RINFWFW | – | – | – | – | – | – | – | – | -1.347 | 0.04 | 50995.8 kcps | 4.708 | 4.708 | –
13 | EIEIQINM [TM95 / (TM75)] | – | – | – | – | – | -1.44 | – | – | – | – | – | – | – | infectivity [1, 10]: low; Rel-to EFC (Feb-2021) [1, 28]: 0.03629; n-fold to virus (Feb2021) [1, 29]: 1.525; Log10 of Rel to EFC (Feb2021) [1, 30]: -1.44; Zeta Count Rate / kcps [2, 31]: 134 kcps; Zeta Count Rate Category ([2]; key not given): 1
14 | KIKIQII [TG1 / (KM4)] | 400 RLU /s | 0.7843 | -1.729 | 0.01867 | low | -1.729 | 1 | 1039 kcps | – | – | – | – | – | n-fold to virus (Feb2021) [1, 24]: 0.7843; Log10 of Rel to EFC (Feb2021) [1, 25]: -1.729; Rel-to EFC (Feb-2021) [1, 26]: 0.01867; infectivity [1, 10]: low; Rel-to EFC (Feb-2021) [1, 28]: 0.01867; n-fold to virus (Feb2021) [1, 29]: 0.7843; Log10 of Rel to EFC (Feb2021) [1, 30]: -1.729; Zeta Count Rate / kcps [2, 31]: 1039 kcps; Zeta Count Rate / kcps [2, 27]: 1039 kcps; Zeta Count Rate Category ([2]; key not given): 1
15 | IFQINS [reference compound] | – | – | – | – | – | – | – | – | – | 0.06 | 36 kcps | – | – | Log10 Infection Rel EF-C [1, 23]: -1.21
16 | CRFRFHFH | – | – | – | – | – | – | – | – | -0.2767 | 0.53 | 430.2 kcps | 2.634 | 2.634 | –
17 | HIHIQIC [CN12] | 4621 RLU /s | 11.38 | -0.5672 | 0.2709 | medium | -0.5672 | 1 | 260.6 kcps | – | – | – | – | – | Rel-to EFC [1, 7]: 0.2709; n-fold to virus [1, 8]: 11.38; Log Count Rate [2, 12]: 2.416; Log Count Rate ([2]; Fig S8 panels B, D): 2.416; Count Rate [2, 13]: 260.57
18 | EIEIQINMWQ [VH8] | – | – | – | – | medium | -0.881 | – | – | – | – | – | – | – | Rel-to EFC (Feb-2021) [1, 28]: 0.1315; n-fold to virus (Feb2021) [1, 29]: 5.526; Log10 of Rel to EFC (Feb2021) [1, 30]: -0.881; Zeta Count Rate / kcps [2, 31]: 1264 kcps; Zeta Count Rate Category ([2]; key not given): 1
19 | KFKFQFNMW [BL5 / KB13] | – | – | – | – | medium | -0.3503 | – | – | – | – | – | – | – | n-fold to virus (Feb2021) [1, 24]: 18.76; Log10 of Rel to EFC (Feb2021) [1, 25]: -0.3503; Rel-to EFC (Feb-2021) [1, 26]: 0.4464; Zeta Count Rate / kcps [2, 27]: 610.2 kcps
20 | KIWIWIW | – | – | – | – | – | – | – | – | -0.2793 | 0.53 | 6186.6 kcps | 3.791 | 3.791 | –
